The values that follow come from patent US20110143948A1, “MOLECULAR SIGNATURES AND BIOMARKERS ASSOCIATED WITH MELANOMA AND METHODS OF USE THEREOF” (priority 2008, published 2011).

The series deals with ncRNAs (SEQ ID NO 28-89). As to the kind of experiment: ncRNA arrays of melanocytes, keratinocytes, normal skin, melanoma cell lines and patient samples. The arrangement: species or system human. As to conditions: for ncRNA array expression, patient 2: melanoma patient 2 sample compared to normal skin; for ncRNA array expression, patient 3: melanoma patient 3 sample compared to normal skin; for ncRNA array expression, patient 4: melanoma patient 4 sample compared to normal skin; for ncRNA array expression, patient 5: melanoma patient 5 sample compared to normal skin; for ncRNA array expression, patient 6: melanoma patient 6 sample compared to normal skin; for ncRNA array expression, patient 7: melanoma patient 7 sample compared to normal skin; for ncRNA array expression, patient 8: melanoma patient 8 sample compared to normal skin; for ncRNA array expression, patient 9: melanoma patient 9 sample compared to normal skin; for ncRNA array expression, patient 10: melanoma patient 10 sample compared to normal skin; for ncRNA array expression, patient 19: melanoma patient 19 sample compared to normal skin; for ncRNA array expression, patient 20: melanoma patient 20 sample compared to normal skin; for ncRNA array expression, patient 21: melanoma patient 21 sample compared to normal skin; for ncRNA array expression, patient 22: melanoma patient 22 sample compared to normal skin; for ncRNA array expression, patient 23: melanoma patient 23 sample compared to normal skin; for ncRNA array expression, patient 24: melanoma patient 24 sample compared to normal skin; for ncRNA array expression, patient 25: melanoma patient 25 sample compared to normal skin; for ncRNA array expression, patient 26: melanoma patient 26 sample compared to normal skin; for ncRNA array expression, patient 27: melanoma patient 27 sample compared to normal skin; for ncRNA array expression, patient 28: melanoma patient 28 sample compared to normal skin; for ncRNA array expression, patient 29: melanoma patient 29 sample compared to normal skin; for ncRNA array expression, patient 30: melanoma patient 30 sample compared to normal skin. The essentials: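 Differential ncRNA expression was defined against melanocytes or normal skin after subtracting keratinocyte-specific signals, with confirmation by qRT-PCR and Northern blot. Samples were melanoma cell lines, patient tumours, melanocytes, keratinocytes and normal skin, hybridised to a >10,000-probe (>200 nt) ncRNA array that also carries RefSeq mRNA probes.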

Consider “SEQ ID NO 65 (CACCGTTTTACTTTTTGTGGGGAGGGGAAGCAGTATCAAAATTTCTTCGGGCGCCAGAAC; listed as DNA, chemistry not given here; listed as Homo sapiens)”, for which the “ncRNA array expression, patient 2” value is recorded as −1.177; the “ncRNA array expression, patient 3” value was −1.344; the “ncRNA array expression, patient 4” value was −1.215; the “ncRNA array expression, patient 5” value is on record as −1.301. Also, the “ncRNA array expression, patient 6” value is reported as −1.643; the “ncRNA array expression, patient 7” value is listed as −1.264; the “ncRNA array expression, patient 8” value is −1.391; the “ncRNA array expression, patient 9” value is listed as −1.267. Moreover, the “ncRNA array expression, patient 10” value is on record as −0.3046; the “ncRNA array expression, patient 19” value is given as −0.6567; the “ncRNA array expression, patient 20” value was −1.283; the “ncRNA array expression, patient 21” value is recorded as −1.289. Also, the “ncRNA array expression, patient 22” value is listed as −1.03; the “ncRNA array expression, patient 23” value is listed as −1.597; the “ncRNA array expression, patient 24” value was −1.241; the “ncRNA array expression, patient 25” value was −1.384. Further, the “ncRNA array expression, patient 26” value is reported as −1.415; the “ncRNA array expression, patient 27” value is given as −1.388; the “ncRNA array expression, patient 28” value is on record as −1.421; the “ncRNA array expression, patient 29” value is −1.2518. For the same substance, the “ncRNA array expression, patient 30” value is given as 0.5803.
In the case of “SEQ ID NO 61 (CATACATTGCCCTCACTAATCAATGGACATTTCAGCATTTCATTACTAATTTTGAGAGAA; listed as DNA, chemistry not given here; listed as Homo sapiens)”, the “ncRNA array expression, patient 2” value came to 1.244; the “ncRNA array expression, patient 3” value came out at 1.117; the “ncRNA array expression, patient 4” value turned out to be 1.12; the “ncRNA array expression, patient 5” value was 3.917. Moreover, the “ncRNA array expression, patient 6” value was 0.992; the “ncRNA array expression, patient 7” value is recorded as 2.069; the “ncRNA array expression, patient 8” value was found to be 1.86; the “ncRNA array expression, patient 9” value is 1.694. The “ncRNA array expression, patient 10” value stood at 3.678; the “ncRNA array expression, patient 19” value is recorded as 0.6865; the “ncRNA array expression, patient 20” value is given as −0.03568; the “ncRNA array expression, patient 21” value stood at 1.984. Moreover, the “ncRNA array expression, patient 22” value was −0.1143; the “ncRNA array expression, patient 23” value is given as 0.5527; the “ncRNA array expression, patient 24” value was found to be 3.802; the “ncRNA array expression, patient 25” value worked out at 2.349. The “ncRNA array expression, patient 26” value came out at 2.817; the “ncRNA array expression, patient 27” value is listed as 1.264; the “ncRNA array expression, patient 28” value stood at 2.585; the “ncRNA array expression, patient 29” value turned out to be 3.112. Besides, the “ncRNA array expression, patient 30” value was 0.254.
Consider “SEQ ID NO 37 (ACGCACTGGGCGTTGAAGCAGTGCTTTCTGGATTAAATACGAAATACTGATGTCACAAGC; DNA, backbone and methylation of C not given here; listed as Homo sapiens)”, for which the “ncRNA array expression, patient 2” value is reported as 1.589; the “ncRNA array expression, patient 3” value worked out at 0.3993; the “ncRNA array expression, patient 4” value was 0.7773; the “ncRNA array expression, patient 5” value came out at 2.425. In addition, the “ncRNA array expression, patient 6” value was −0.3494; the “ncRNA array expression, patient 7” value is on record as 1.933; the “ncRNA array expression, patient 8” value is reported as 1.302; the “ncRNA array expression, patient 9” value was determined as 2.619. Moreover, the “ncRNA array expression, patient 10” value is reported as 3.899; the “ncRNA array expression, patient 19” value was found to be 4.51; the “ncRNA array expression, patient 20” value is reported as 0.9938; the “ncRNA array expression, patient 21” value was found to be 2.575. For the same substance, the “ncRNA array expression, patient 22” value was 0.0988; the “ncRNA array expression, patient 23” value was found to be 1.771; the “ncRNA array expression, patient 24” value was found to be 4.312; the “ncRNA array expression, patient 25” value is 3.471. Also, the “ncRNA array expression, patient 26” value is given as 2.31; the “ncRNA array expression, patient 27” value is on record as 0.5554; the “ncRNA array expression, patient 28” value is on record as 1.732; the “ncRNA array expression, patient 29” value turned out to be 2.461. Besides, the “ncRNA array expression, patient 30” value was −1.17.
For “SEQ ID NO 58 (ATTTATTTGACTCTAAAATGACAATATAACAACTATAAGGAATTGATATGATGTCCTTAC; listed as DNA, chemistry not given here; listed as Homo sapiens)”, the “ncRNA array expression, patient 2” value is on record as −1.675; the “ncRNA array expression, patient 3” value is listed as −1.723; the “ncRNA array expression, patient 4” value is −0.4325; the “ncRNA array expression, patient 5” value is −1.707. Also, the “ncRNA array expression, patient 6” value was −1.802; the “ncRNA array expression, patient 7” value is on record as −1.2619; the “ncRNA array expression, patient 8” value was −1.825; the “ncRNA array expression, patient 9” value is recorded as −1.569. The “ncRNA array expression, patient 10” value is −1.223; the “ncRNA array expression, patient 19” value is recorded as −1.471; the “ncRNA array expression, patient 20” value is −1.134; the “ncRNA array expression, patient 21” value is on record as −1.719. In addition, the “ncRNA array expression, patient 22” value was −1.28; the “ncRNA array expression, patient 23” value was −1.756; the “ncRNA array expression, patient 24” value is listed as −1.757; the “ncRNA array expression, patient 25” value is recorded as −1.52. Moreover, the “ncRNA array expression, patient 26” value is −1.463; the “ncRNA array expression, patient 27” value was −1.595; the “ncRNA array expression, patient 28” value is −1.708; the “ncRNA array expression, patient 29” value is given as −1.543. Besides, the “ncRNA array expression, patient 30” value was −1.631.
“SEQ ID NO 74 (TATATTACAGGAGTTGTCTATACGATTATAGTACCTGATTCTTTGGACATATCATTGAAC; listed as DNA, chemistry not given here; listed as Homo sapiens)”: the “ncRNA array expression, patient 2” value is 2.155; the “ncRNA array expression, patient 3” value worked out at 1.879; the “ncRNA array expression, patient 4” value is reported as 2.326; the “ncRNA array expression, patient 5” value turned out to be 0.3239. For the same substance, the “ncRNA array expression, patient 6” value is on record as 0.8281; the “ncRNA array expression, patient 7” value worked out at 2.016; the “ncRNA array expression, patient 8” value is 1.309; the “ncRNA array expression, patient 9” value was 0.6157. The “ncRNA array expression, patient 10” value was 2.172; the “ncRNA array expression, patient 19” value was −0.2091; the “ncRNA array expression, patient 20” value stood at 0.8773; the “ncRNA array expression, patient 21” value was 1.569. The “ncRNA array expression, patient 22” value amounted to 0.2398; the “ncRNA array expression, patient 23” value came to 1.776; the “ncRNA array expression, patient 24” value is 0.8669; the “ncRNA array expression, patient 25” value was 2.599. Also, the “ncRNA array expression, patient 26” value was determined as 2.626; the “ncRNA array expression, patient 27” value is given as 0.4062; the “ncRNA array expression, patient 28” value turned out to be 2.421; the “ncRNA array expression, patient 29” value is reported as 1.974. For the same substance, the “ncRNA array expression, patient 30” value was −1.075.
“SEQ ID NO 67 (TTCCCTATTCCATCCTTTGATGGGTGGCCTGTTACACGTTTGGAAATAAAAACAAGTGGG; listed as DNA, chemistry not given here; listed as Homo sapiens)”: the “ncRNA array expression, patient 2” value came to 2.053; the “ncRNA array expression, patient 3” value was found to be 1.721; the “ncRNA array expression, patient 4” value is given as 0.6532; the “ncRNA array expression, patient 5” value amounted to 4.146. The “ncRNA array expression, patient 6” value is on record as 1.481; the “ncRNA array expression, patient 7” value worked out at 2.486; the “ncRNA array expression, patient 8” value was determined as 1.375; the “ncRNA array expression, patient 9” value amounted to 1.111. For the same substance, the “ncRNA array expression, patient 10” value is reported as 3.887; the “ncRNA array expression, patient 19” value is on record as 0.7069; the “ncRNA array expression, patient 20” value is listed as 1.071; the “ncRNA array expression, patient 21” value is recorded as 3.856. In addition, the “ncRNA array expression, patient 22” value was found to be 1.186; the “ncRNA array expression, patient 23” value is reported as 2.369; the “ncRNA array expression, patient 24” value stood at 1.045; the “ncRNA array expression, patient 25” value came to 0.3622. In addition, the “ncRNA array expression, patient 26” value stood at 0.8179; the “ncRNA array expression, patient 27” value is 1.392; the “ncRNA array expression, patient 28” value is on record as 6.659; the “ncRNA array expression, patient 29” value came to 2.096. Also, the “ncRNA array expression, patient 30” value is given as −1.191.
Consider “SEQ ID NO 44 (AGCCAACTCACGCTTAGGGAGAACTCATACCGCCTAAATATAAAGGCAATTATATATATA; listed as DNA, chemistry not given here; listed as Homo sapiens)”, for which the “ncRNA array expression, patient 2” value is recorded as −1.843; the “ncRNA array expression, patient 3” value is −1.705; the “ncRNA array expression, patient 4” value was −1.679; the “ncRNA array expression, patient 5” value is reported as −1.807. The “ncRNA array expression, patient 6” value is listed as −1.08; the “ncRNA array expression, patient 7” value is on record as −1.932; the “ncRNA array expression, patient 8” value was −2.019; the “ncRNA array expression, patient 9” value is −1.861. The “ncRNA array expression, patient 10” value is reported as −0.3103; the “ncRNA array expression, patient 19” value is −1.83; the “ncRNA array expression, patient 20” value is −1.651; the “ncRNA array expression, patient 21” value was −1.7. For the same substance, the “ncRNA array expression, patient 22” value was −1.029; the “ncRNA array expression, patient 23” value is −1.95; the “ncRNA array expression, patient 24” value was −1.768; the “ncRNA array expression, patient 25” value is recorded as −1.979. Moreover, the “ncRNA array expression, patient 26” value is recorded as −1.501; the “ncRNA array expression, patient 27” value is −1.744; the “ncRNA array expression, patient 28” value is reported as −1.679; the “ncRNA array expression, patient 29” value was −1.809. The “ncRNA array expression, patient 30” value came to 0.9814.
